Legend:
[1] = tested on: SMN2 minigene (full length SMN2 minigene mRNA containing SMN2 exon 7); experiment: SMN2 minigene mRNA splicing RT-qPCR assay in cultured cells; type: cell-based, human; details: Homo sapiens, HEK293-H; HEK293H cells stably transfected with SMN2-A minigene; 24 hours; 7-point concentration curve; 1.5-fold relative to vehicle-treated cells; read-out: EC1.5x for production of full length SMN2 mRNA
Outline: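 Lysates → one-step RT-qPCR, minigene-specific primers (0.4 μM final) + GAPDH multiplex, 40 cycles. FL/GAPDH vs DMSO; EC1.5x, star-binned.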

Smn protein = Smn protein assay in cultured cells (SMN HTRF); type: cell-based, human; details: 48 hours; for maximum fold (Fold) increase of Smn protein: SMA patient fibroblast cells, 7-point concentration data, fold increase relative to vehicle control (SMN HTRF); for EC1.5x (concentration giving 1.5-fold Smn protein increase): SMA Type 1 patient fibroblast cells (GM03813), 7-point concentration curve, SMN HTRF, concentration producing 1.5 times Smn protein vs DMSO vehicle control, read-out: EC1.5x for Smn protein expression
Outline: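 Smn in SMA fibroblast lysates, measured by anti-SMN HTRF after 48 h compound exposure; EC1.5x from fold change over vehicle.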

## Cc1cc2oc(-c3cc4ccc(N5CCN(C(C)C)CC5)cc4oc3=O)cc2c(C)n1 [Compound 840, 3-(4,6-dimethylfuro[3,2-c]pyridin-2-yl)-7-[4-(propan-2-yl)piperazin-1-yl]-2H-chromen-2-one]
[1]
  EC (1.5-fold): 0.3 to 1 µM
Smn protein
  maximum fold (Fold) increase of Smn protein: * (maximum fold increase of ≤1.2)
other
  melting point: 186 to 191 °C

## Cc1cn2cc(-c3cc4ccc(C5CCN(C)CC5)cc4oc3=O)nc2cn1 [Compound 841, 3-(6-methylimidazo[1,2-a]pyrazin-2-yl)-7-(1-methylpiperidin-4-yl)-2H-chromen-2-one]
[1]
  EC (1.5-fold): < 0.1 µM
Smn protein
  EC1.5x (concentration giving 1.5-fold Smn protein increase): < 300 nM
  maximum fold (Fold) increase of Smn protein: ***** (fold increase >1.65)
other
  melting point: 266 to 272 °C

## CCCN1CCC(c2ccc3cc(-c4cn5cc(C)nc(C)c5n4)c(=O)oc3c2)CC1 [Compound 842, 3-(6,8-dimethylimidazo[1,2-a]pyrazin-2-yl)-7-(1-propylpiperidin-4-yl)-2H-chromen-2-one]
[1]
  EC (1.5-fold): < 0.1 µM
Smn protein
  EC1.5x (concentration giving 1.5-fold Smn protein increase): < 300 nM
  maximum fold (Fold) increase of Smn protein: ***** (fold increase >1.65)
other
  melting point: 208 to 212 °C

## Cc1cn2cc(-c3cc4ccc(C5CCN(CCO)CC5)cc4oc3=O)nc2cn1 [Compound 843, 7-[1-(2-hydroxyethyl)piperidin-4-yl]-3-(6-methylimidazo[1,2-a]pyrazin-2-yl)-2H-chromen-2-one]
[1]
  EC (1.5-fold): < 0.1 µM
Smn protein
  EC1.5x (concentration giving 1.5-fold Smn protein increase): < 300 nM
  maximum fold (Fold) increase of Smn protein: **** (fold increase between >1.5 and ≤1.65)
other
  melting point: 230 to 236 °C

## CCN1CCC(c2ccc3cc(-c4cn5cc(C)ncc5n4)c(=O)oc3c2)CC1 [Compound 844, 7-(1-ethylpiperidin-4-yl)-3-(6-methylimidazo[1,2-a]pyrazin-2-yl)-2H-chromen-2-one]
[1]
  EC (1.5-fold): < 0.1 µM
Smn protein
  EC1.5x (concentration giving 1.5-fold Smn protein increase): 300 to 1000 nM
  maximum fold (Fold) increase of Smn protein: **** (fold increase between >1.5 and ≤1.65)
other
  melting point: 249 to 259 °C

## Cc1cn2cc(-c3cc4ccc(CN5CCCCC5)cc4oc3=O)nc2c(C)n1 [Compound 847, 3-(6,8-dimethylimidazo[1,2-a]pyrazin-2-yl)-7-(piperidin-1-ylmethyl)-2H-chromen-2-one]
[1]
  EC (1.5-fold): 1 to 3 µM
Smn protein
  maximum fold (Fold) increase of Smn protein: ** (fold increase between >1.2 and ≤1.35)
other
  melting point: 191 to 193 °C

## Cc1cn2cc(-c3cc4ccc(CN5CCNCC5)cc4oc3=O)nc2c(C)n1 [Compound 848, 3-(6,8-dimethylimidazo[1,2-a]pyrazin-2-yl)-7-(piperazin-1-ylmethyl)-2H-chromen-2-one]
[1]
  EC (1.5-fold): < 0.1 µM
Smn protein
  EC1.5x (concentration giving 1.5-fold Smn protein increase): 300 to 1000 nM
  maximum fold (Fold) increase of Smn protein: ***** (fold increase >1.65)
other
  melting point: 189 to 195 °C

## Cc1cn2cc(-c3cc4ccc(CN5CCN(C)CC5)cc4oc3=O)nc2c(C)n1 [Compound 849, 3-(6,8-dimethylimidazo[1,2-a]pyrazin-2-yl)-7-[(4-methylpiperazin-1-yl)methyl]-2H-chromen-2-one]
[1]
  EC (1.5-fold): 0.1 to 0.3 µM
Smn protein
  EC1.5x (concentration giving 1.5-fold Smn protein increase): 300 to 1000 nM
  maximum fold (Fold) increase of Smn protein: ***** (fold increase >1.65)
other
  melting point: 220 to 223 °C

## Cc1cn2cc(-c3cc4ccc(CNC(C)C)cc4oc3=O)nc2c(C)n1 [Compound 850, 3-(6,8-dimethylimidazo[1,2-a]pyrazin-2-yl)-7-[(propan-2-ylamino)methyl]-2H-chromen-2-one]
[1]
  EC (1.5-fold): 0.3 to 1 µM
Smn protein
  maximum fold (Fold) increase of Smn protein: ** (fold increase between >1.2 and ≤1.35)
other
  melting point: 285 to 291 °C

## Cc1cn2cc(-c3cc4ccc(Cn5ccnc5)cc4oc3=O)nc2c(C)n1 [Compound 851, 3-(6,8-dimethylimidazo[1,2-a]pyrazin-2-yl)-7-(1H-imidazol-1-ylmethyl)-2H-chromen-2-one]
[1]
  EC (1.5-fold): 1 to 3 µM
Smn protein
  maximum fold (Fold) increase of Smn protein: *** (fold increase between >1.35 and ≤1.5)
other
  melting point: 286 to 292 °C

## Cc1cn2cc(-c3cc4ccc(C5CCN(C6CC6)CC5)cc4oc3=O)nc2c(C)n1 [Compound 854, 7-(1-cyclopropylpiperidin-4-yl)-3-(6,8-dimethylimidazo[1,2-a]pyrazin-2-yl)-2H-chromen-2-one]
[1]
  EC (1.5-fold): < 0.1 µM
Smn protein
  EC1.5x (concentration giving 1.5-fold Smn protein increase): < 300 nM
  maximum fold (Fold) increase of Smn protein: ***** (fold increase >1.65)
other
  melting point: 236 to 243 °C

## Cc1cn2cc(-c3cc4ccc(C5CCN(C6COC6)CC5)cc4oc3=O)nc2c(C)n1 [Compound 855, 3-(6,8-dimethylimidazo[1,2-a]pyrazin-2-yl)-7-[1-(oxetan-3-yl)piperidin-4-yl]-2H-chromen-2-one]
[1]
  EC (1.5-fold): < 0.1 µM
Smn protein
  EC1.5x (concentration giving 1.5-fold Smn protein increase): < 300 nM
  maximum fold (Fold) increase of Smn protein: ***** (fold increase >1.65)
other
  melting point: 217 to 223 °C

## Cn1cc2cc(-c3cc4ccc(C5CCNCC5)cc4oc3=O)ccc2n1 [Compound 856, 3-(2-methyl-2H-indazol-5-yl)-7-(piperidin-4-yl)-2H-chromen-2-one]
[1]
  EC (1.5-fold): < 0.1 µM
Smn protein
  EC1.5x (concentration giving 1.5-fold Smn protein increase): < 300 nM
  maximum fold (Fold) increase of Smn protein: ***** (fold increase >1.65)
other
  melting point: 232 to 238 °C

## Cc1cn2cc(-c3cc4ccc(CCCN(C)C)cc4oc3=O)nc2c(C)n1 [Compound 857, 7-[3-(dimethylamino)propyl]-3-(6,8-dimethylimidazo[1,2-a]pyrazin-2-yl)-2H-chromen-2-one]
[1]
  EC (1.5-fold): < 0.1 µM
Smn protein
  EC1.5x (concentration giving 1.5-fold Smn protein increase): < 300 nM
  maximum fold (Fold) increase of Smn protein: ***** (fold increase >1.65)
other
  melting point: 194 to 196 °C

## Cc1cn2cc(-c3cc4ccc(CCCNC(C)C)cc4oc3=O)nc2c(C)n1 [Compound 858, 3-(6,8-dimethylimidazo[1,2-a]pyrazin-2-yl)-7-[3-(propan-2-ylamino)propyl]-2H-chromen-2-one]
[1]
  EC (1.5-fold): < 0.1 µM
Smn protein
  EC1.5x (concentration giving 1.5-fold Smn protein increase): < 300 nM
  maximum fold (Fold) increase of Smn protein: **** (fold increase between >1.5 and ≤1.65)
other
  melting point: 184 to 187 °C

## Cc1cn2cc(-c3cc4ccc(CCCN5CCNCC5)cc4oc3=O)nc2c(C)n1 [Compound 859, 3-(6,8-dimethylimidazo[1,2-a]pyrazin-2-yl)-7-[3-(piperazin-1-yl)propyl]-2H-chromen-2-one]
[1]
  EC (1.5-fold): 0.1 to 0.3 µM
Smn protein
  EC1.5x (concentration giving 1.5-fold Smn protein increase): 300 to 1000 nM
  maximum fold (Fold) increase of Smn protein: **** (fold increase between >1.5 and ≤1.65)
other
  melting point: 145 to 153 °C

## Cc1cn2cc(-c3cc4ccc(CCCN5CCN(C)CC5)cc4oc3=O)nc2c(C)n1 [Compound 860, 3-(6,8-dimethylimidazo[1,2-a]pyrazin-2-yl)-7-[3-(4-methylpiperazin-1-yl)propyl]-2H-chromen-2-one]
[1]
  EC (1.5-fold): 0.3 to 1 µM
Smn protein
  EC1.5x (concentration giving 1.5-fold Smn protein increase): 1000 to 3000 nM
  maximum fold (Fold) increase of Smn protein: **** (fold increase between >1.5 and ≤1.65)
other
  melting point: 219 to 223 °C

## Cn1cc2cc(-c3cc4ccc(C5CCN(CCO)CC5)cc4oc3=O)ccc2n1 [Compound 861, 7-[1-(2-hydroxyethyl)piperidin-4-yl]-3-(2-methyl-2H-indazol-5-yl)-2H-chromen-2-one]
[1]
  EC (1.5-fold): < 0.1 µM
Smn protein
  EC1.5x (concentration giving 1.5-fold Smn protein increase): 300 to 1000 nM
  maximum fold (Fold) increase of Smn protein: ***** (fold increase >1.65)
other
  melting point: 220 to 226 °C

## CN1CCC(c2ccc3cc(-c4ccc5nn(C)cc5c4)c(=O)oc3c2)CC1 [Compound 862, 3-(2-methyl-2H-indazol-5-yl)-7-(1-methylpiperidin-4-yl)-2H-chromen-2-one]
[1]
  EC (1.5-fold): < 0.1 µM
Smn protein
  EC1.5x (concentration giving 1.5-fold Smn protein increase): 300 to 1000 nM
  maximum fold (Fold) increase of Smn protein: ***** (fold increase >1.65)
other
  melting point: 215 to 218 °C

## CCN1CCC(c2ccc3cc(-c4ccc5nn(C)cc5c4)c(=O)oc3c2)CC1 [Compound 863, 7-(1-ethylpiperidin-4-yl)-3-(2-methyl-2H-indazol-5-yl)-2H-chromen-2-one]
[1]
  EC (1.5-fold): 0.1 to 0.3 µM
Smn protein
  EC1.5x (concentration giving 1.5-fold Smn protein increase): 300 to 1000 nM
  maximum fold (Fold) increase of Smn protein: ***** (fold increase >1.65)
other
  melting point: 196 to 198 °C

## Cc1cn2cc(-c3cc4ccc(CCN(C)C)cc4oc3=O)nc2c(C)n1 [Compound 864, 7-[2-(dimethylamino)ethyl]-3-(6,8-dimethylimidazo[1,2-a]pyrazin-2-yl)-2H-chromen-2-one]
[1]
  EC (1.5-fold): < 0.1 µM
Smn protein
  EC1.5x (concentration giving 1.5-fold Smn protein increase): < 300 nM
  maximum fold (Fold) increase of Smn protein: ***** (fold increase >1.65)
other
  melting point: 219 to 223 °C

## Cc1cn2cc(-c3cc4ccc(CCNC(C)C)cc4oc3=O)nc2c(C)n1 [Compound 865, 3-(6,8-dimethylimidazo[1,2-a]pyrazin-2-yl)-7-[2-(propan-2-ylamino)ethyl]-2H-chromen-2-one]
[1]
  EC (1.5-fold): < 0.1 µM
Smn protein
  EC1.5x (concentration giving 1.5-fold Smn protein increase): 1000 to 3000 nM
  maximum fold (Fold) increase of Smn protein: **** (fold increase between >1.5 and ≤1.65)
other
  melting point: 192 to 197 °C

## Cc1cn2cc(-c3cc4ccc(CCN5CCNCC5)cc4oc3=O)nc2c(C)n1 [Compound 866, 3-(6,8-dimethylimidazo[1,2-a]pyrazin-2-yl)-7-[2-(piperazin-1-yl)ethyl]-2H-chromen-2-one]
[1]
  EC (1.5-fold): 0.1 to 0.3 µM
Smn protein
  EC1.5x (concentration giving 1.5-fold Smn protein increase): 300 to 1000 nM
  maximum fold (Fold) increase of Smn protein: *** (fold increase between >1.35 and ≤1.5)
other
  melting point: 186 to 188 °C
